The results in this text go back to patent US20100048536A1, “Novel Substituted Diaryl Azepine Derivatives as Integrin Ligands” (priority 2000, published 2010).

This test addresses T1, integrin αvβ3 (Homo sapiens, UniProt P05106+P06756).
T1 construct: from tissue; host or cells: human placenta
In words: Integrin αvβ3 assay (competition with vitronectin for binding to solid phase-bound integrin αvβ3). The conditions noted are these: integrin αvβ3 from human placenta, qualitative ranking only. As for the experimental part:
For the identification and assessment of integrin αvβ3 ligands, a test system was used which was based on competition between the natural integrin αvβ3 ligand vitronectin and the test substance for binding to solid phase-bound integrin αvβ3
• Microtiter plates coated with 250 ng/ml of integrin αvβ3 in 0.05 M NaHCO3 pH 9.2; 0.1 ml/well; • saturation with 1% powdered milk/assay buffer; 0.3 ml/well; 0.5 h/RT • 3× washing with 0.05% Tween 20/assay buffer • test substance in 0.1% powdered milk/assay buffer, 50 μl/well+0 μg/ml or 2 μg/ml of human vitronectin (Boehringer Ingelheim T007) in 0.1% powdered milk/assay buffer, 50 μl/well; 1 h/RT • 3× washing with 0.05% Tween 20/assay buffer • 1 μg/ml of anti human vitronectin antibody coupled to peroxidase (Kordia SAVN-APHRP) in 0.1% powdered milk/assay buffer; 0.1 ml/well; 1 h/RT • 3× washing with 0.05% Tween 20/assay buffer • 0.1 ml/well of peroxidase substrate • stop reaction with 0.1 ml/well of 2 M H2SO4 • measurement of the absorption at 450 nm
Integrin αvβ3: Human placenta is solubilized with Nonidet and integrin αvβ3 affinity-purified on a GRGDSPK matrix (elution with EDTA). Impurities due to integrin αIIbβ3 and human serum albumin, and the detergent and EDTA are removed by anion-exchange chromatography. […]

As to `CN1C(=O)c2ccccc2C(CC(=O)O)c2ccc(OCCCCNc3ccccn3)cc21` (stereo not shown) [Example I, {5-Methyl-6-oxo-3-{4-(2-pyridinylamino)-butoxy]-6,11-dihydro 5H-dibenzo[b,e]azepin-11-yl}acetic acid], the “IC50 values (concentration of the ligand at which 50% of the ligand is displaced)” value is reported as “best result”.
